In patent publication US6627441B1, “Increasing levels of growth regulator and/or water stress during embryo development” (priority 1998, dated 2003):

Assays:
[1] = tested on: somatic embryos; assay: High intensity water stressing and ABA, inhibition of precocious germination (Example 3); format: cell-based, white spruce and Norway spruce
Procedure: Somatic embryos were plated on medium containing PEG adjusted to 290 mmol/kg PEG and 16 μM ABA then either transferred to fresh medium of the same composition every two weeks, or transferred every two weeks to medium containing increasing ABA and PEG as outlined in Table 3.

[2] = tested on: white spruce somatic embryos; assay: Somatic seedling length after desiccation and germination (Example 8); format: cell-based; details: ABA raised to 40 μM and water potential to 400 or 540 mmol/kg with PEG, versus control; two weeks
From the text: In order to desiccate the somatic embryos, they were transferred on their filter paper supports to an empty petri dish. The lid was replaced and left unsealed to prevent contamination while allowing the moisture to escape from the dish. Somatic embryos were desiccated in a sterile chamber in which sterile air at ambient relative humidity (usually 20-60% r.h.) was passed. Similarly, embryos may be desiccated in one or more controlled gaseous environments of relative humidity, ranging from about 5% to 100%. […] Embryos were usually left two weeks to dry. Desiccated embryos can then be stored, preferably frozen, or germinated directly.
For germination, the somatic embryos upon their filter paper supports were rehydrated on germination medium. This consisted of ½ LM, 2% sucrose, 0.7% agar (Sigma), with no growth regulators, glutamine or casein hydrolysate, in petri dishes or Sigma PHYTATRAYS™. […]
Somatic embryos were produced following the methods described in Example 4. […] One batch of desiccated spruce embryos produced using these methods was measured and a moisture content of about 7.7 (±0.2)% recorded. […] Two weeks after imbibition, the somatic plantlets were removed from the culture medium and their lengths were measured. Between 53 to 63 somatic plantlets were recorded per treatment.

[3] = tested on: white spruce somatic embryos; assay: Reducing or increasing ABA with increasing water stress and desiccation, plant growth (Example 9); format: cell-based; details: for Shoot development / Survival / Total plant length: 8 weeks growth
Procedure: Experiments were conducted to determine the effects of decreasing ABA levels in combination with increasing water stress on development, desiccation tolerance and germination of white spruce. Embryos from preculture (Example 7, treatment 8) were plated onto the transfer schedule outlined below.
Cotyledonary embryos were visible after the second week of culture, and cotyledons were prominent from the fourth week during which time the somatic embryos were in contact with 40 to 20 μM of ABA. […] For germination, the best embryos which were not showing precocious germination were selected. Somatic embryos were either germinated directly or were desiccated then germinated as described above. Controls were prepared using embryos developed using pretreatment 8, in Example 7, followed by culture on solidified medium treatment 6 of Example 4.

[4] = tested on: Western larch somatic embryos; assay: Western larch somatic embryogenesis (Example 10); format: cell-based, Western larch (Larix occidentalis Nutt.)
Procedure: In order to test the effect of increased ABA and osmoticum, somatic embryos were first cultured on ½ LM full hormone proliferation medium, then transferred to hormone-free preculture medium with 3% sucrose for one week prior to plating 0.75 mL of a 20% (w/v) suspension culture onto filter paper supports overlaying solidified maturation medium. The somatic embryos were plated on PEG medium of 330 mmol/kg and 16 μM ABA, then transferred to 380 mmol/kg PEG medium, 24 ABA after 1 week, then transferred to 450 mmol/kg PEG medium, 32 μM ABA after the third week. These were then either desiccated at week 5 or were transferred to 540 mmol/kg PEG, 40 μM ABA for up to two more weeks before desiccating.

[5] = tested on: Douglas fir somatic embryos; assay: Douglas fir somatic embryogenesis (Example 11); format: cell-based
Procedure: Douglas fir may be cultured using sucrose at 1-3% (30-90 mM), however, other sugars may be used at the same concentrations. Maintenance cultures usually contain the sugar at about 1%. […] Douglas fir embryogenic tissue was induced from developing seed. Embryos contained in megametophytes were induced and maintained on TX maintenance medium having 1% sucrose. This medium contained 0.2 g/L glutamine and 0.2 g/L casein hydrolysate. Selected embryogenic tissue was subcultured biweekly per petri dish. Medium was solidified with 2.4 g/L PHYTAGEL™. This medium contained 9 μM 2,4-D and 4.5 μM BA. Liquid suspension cultures were maintained in flasks containing 50 mL liquid maintenance medium Liquid cultures were subcultured weekly. For maturation, the embryogenic suspension was first precultured in liquid medium without growth regulators, and subcultured weekly. The water potential of the maintenance cultures and precultures remained below 150 mmol/kg. After one or two weeks of preculture, 1 to 2 g of filtered tissue was resuspended in 10 mL fresh medium and 0.75 mL of the new suspension was pipetted onto the solid maturation medium. Maturation medium contained calcium chloride at 105 mg/L, and ammonium nitrate was included at 400 mg/L. Glutamine was used at 0.8 g/L for the first week then reduced to 0.1 g/L thereafter. Casein hydrolysate was maintained at 0.2 g/L. The sugar was increased to 2-3% and the medium was solidified with Phytagel at 2.8 to 3.4 g/L. ABA was added into the medium after filter sterilization. The maturation medium also contained PEG. The ABA and water potential were raised following the schedule in the following table.
In some instances, the PEG was reduced and the water potential made up to the desired level using lactose at 0% in the first week, 1% in week 2, 4% in weeks 3 and 4, 5% in week 5, and 6% in week 6. Although this allowed a firmer gel to set than otherwise would occur with PEG alone, it may not provide any other benefit over full PEG (see, for example, Table 8), particularly if liquid culture medium is used. […] The embryos were desiccated and stored in a freezer as described for spruce, or germinated directly without desiccation. For germination, embryos were placed on half-strength basal medium containing 0.4 g/L calcium nitrate, 0.2 g/L ammonium nitrate, no hormones and 2% sucrose and 0.6% agar. These were grown in the light.

[6] = ABA 30 to 60 μM and water potential 294 to 814 mmol/kg over 6 weeks

For CC1=CC(=O)CC(C)(C)[C@@]1(O)/C=C/C(C)=C\C(=O)O [ABA, abscisic acid], the precocious germination ([1]; maintained on 290 mmol/kg PEG and 16 μM ABA, fresh medium every two weeks, week 10) was “precociously germinated”, the precocious germination ([1]; schedule of increasing ABA (16 to 56 μM) and PEG (290 to 650 mmol/kg), biweekly transfer, 10 weeks) was “no evidence of precocious germination” and the “increase in plantlet length” value [2] was about 50%. For the same compound, the “appearance of developed embryos, precocious germination” value ([3]; ABA decreasing 40, 20, 10, 0 μM with PEG 290, 400, 540, 540 mmol/kg over 6 weeks) was “slight swelling and slight greening”, the Shoot development ([3]; Increasing ABA, desiccated) was 93% and the Survival ([3]; Increasing ABA, desiccated) was 100%. It also gave a Total plant length ([3]; Increasing ABA, desiccated) of 34.5 mm, a Shoot development ([3]; Reducing ABA, desiccation) of 0% and a Survival ([3]; Reducing ABA, desiccation) of 80.5%. It also gave a Total plant length ([3]; Reducing ABA, desiccation) of 8.14 mm, a Shoot development ([3]; Reducing ABA, no desiccation) of 0% and a Survival ([3]; Reducing ABA, no desiccation) of 100%. The Total plant length ([3]; Reducing ABA, no desiccation) was 25.8 mm, the new needle development ([3]; Reducing ABA, non-desiccated embryos, after 12 weeks of growth) was “none had shown new needle development” and the “production of mature embryos” value ([4]; ABA and a mild water stress of 3% sucrose) was “rarely produced mature embryos”. The “plantlets after desiccation and germination” value ([4]; PEG 330 to 450 or 540 mmol/kg with ABA 16 to 32 or 40 μM, desiccated and germinated) was “viable somatic plantlets with root and developing needles”, the precocious germination ([4]; PEG 330 to 450 or 540 mmol/kg with ABA 16 to 32 or 40 μM, five to seven weeks of culture) was “inhibited from germinating precociously” and the “germination with shoot and needle development, frequency” value [5, 6] was about 100%. For the same compound, the precocious germination [5, 6] was “Precocious germination was prevented” and the “survival after transfer to soil in a greenhouse, frequency” value ([5]; somatic plants produced using the methods of this invention) was “up to 95%”.
